Experiments:
[1] = test system: human fibroblasts; assay: Collagen synthesis / collagen proliferation performance (3H-proline incorporation, RCB); assay type: cell-based; conditions: for collagen proliferation, result in words (Table 2, FIG. 4): concentrations 10^−6 to 10^−4
Method: In order to determine degree of collagen synthesis, human fibroblasts were cultured in a 24-well microtiter plate. The same sample as used for cell proliferation was diluted in a rate of 1/10 in a culture medium and the diluted sample was added to the cultured fibroblasts. The samples used herein were vitamin C, genistein, cyclodextrin, and the inclusion-complexes prepared in Examples 1 and 2.
At 3 days after culture, 0.5 ml of 10% FBS containing DMEM medium was added to each well, followed by adding 10 μCi of L[2,3,4,5-3H]-proline thereto. After 24 hours, the medium and the cells were collected from the well and fed into a 5% trichloroacetic acid (TCA) solution to rinse the product. The rinsed product was plated in two test tubes. 1 unit/μl of Type I collagenase was added to one of the test tubes and cultured at 37° C. for 90 minutes, while the other test tube was stored at 4° C.
After that, adding 0.05 ml of 50% TCA to both the test tubes and leaving the same at 4° C. for 20 minutes, each of the test tubes was subjected to centrifugation at 12,000 rpm for 10 minutes. The resultant supernatant and precipitate were detected using a liquid scintillation counter (LSC) to measure decay per minute (dpm) values. The measured dpm values were used to calculate relative collagen biosynthesis (RCB) values according to the following equation 1: RCB=collagen dpm value/{[([…])×5.4]+collagen dpm value}×100 Equation 1

[2] = test system: human fibroblasts; assay: Fibroblast proliferation performance (MTT); assay type: cell-based; conditions: 4 days culture
Method: In order to evaluate cell proliferation performance of the inclusion-complex according to the present invention, fibroblast proliferation performance was determined.
More particularly, human fibroblasts were cultured in Dulbecco s Modified Eagle's medium (DMEM) containing 2.5% fetal bovine serum (FBS) and the cultured cells were plated in a 96-well microtiter plate at 5,000 cells/well.
Each of the inclusion-complex produced in Example 1 (an inclusion-complex of β-cyclodextrin/geniste with a genistein concentration of 5%), the inclusion-complex produced in Example 2 (an inclusion-complex of hydroxypropyl β-cyclodextrin/genistein with a genistein concentration of 5%) was used as a test sample. On the other hand, genistein, retinol and tocopherol, hydroxypropyl β-cyclodextrin and β-cyclodextrin, respectively, were used as controls. Each of the samples was regulated to have a final concentration of 1 mg/ml and added to the fibroblasts, followed by additional culturing of the fibroblasts for 4 days.
After completing the culture, 50 μl of 0.2% MTT (3-[4,5-dimethylthiazol-2-yl]-2,5-diphenyltetrazolium bromide) solution was added to each well, and then, cultured at 37° C. for 4 hours. The obtained formazan was dissolved in dimethyl sulfoxide (DMSO). The formazan solution was subjected to determination of absorption at 570 nm using a microplate reader.

Row | Molecule | Collagen proliferation rate ([1]; concentration 10^−4) | Collagen proliferation rate ([1]; concentration 10^−5) | Collagen proliferation rate ([1]; concentration 10^−6) | collagen proliferation, result in words (Table 2, FIG. 4) [1] | cell viability dependent on concentration (FIG. 2) [2]
1 | OC[C@H]1O[C@@H]2O[C@H]3[C@H](O)[C@@H](O)[C@@H](O[C@H]4[C@H](O)[C@@H](O)[C@@H](O[C@H]5[C@H](O)[C@@H](O)[C@@H](O[C@H]6[C@H](O)[C@@H](O)[C@@H](O[C@H]7[C@H](O)[C@@H](O)[C@@H](O[C@H]8[C@H](O)[C@@H](O)[C@@H](O[C@H]1[C@H](O)[C@H]2O)O[C@@H]8CO)O[C@@H]7CO)O[C@@H]6CO)O[C@@H]5CO)O[C@@H]4CO)O[C@@H]3CO [Cyclodextrin, β-cyclodextrin] | 102% | 101% | 102% | not greatly improved | 
2 | O=c1c(-c2ccc(O)cc2)coc2cc(O)cc(O)c12 [Genistein] | 115% | 112% | 105% | more excellent effects with increased concentration | increased somewhat in proportion to concentration
3 | O=C1O[C@H]([C@@H](O)CO)C(O)=C1O [Vitamin C] | 98% | 105% | 106% | decreased as its concentration increased | 
4 | CC1=C(/C=C/C(C)=C/C=C/C(C)=C/CO)C(C)(C)CCC1 [retinol] |  |  |  |  | increased somewhat in proportion to concentration
5 | hydroxypropyl β-cyclodextrin | 104% | 104% | 101% | not greatly improved | 
6 | tocopherol |  |  |  |  | increased somewhat in proportion to concentration
